The record followed here is patent EP0526540B1, “USE OF 5-HT4-RECEPTOR ANTAGONISTS IN THE TREATMENT OF ATRIAL FIBRILLATION, INCLUDING THE PREVENTION OF STROKE” (SMITH KLINE & FRENCH LABORATORIES LIMITED, priority 1990, dated 1991).

The target in experiment [1] is cardiac 5-HT4 receptors (Sus scrofa, UniProt Q6Q253). Description: Piglet spontaneous beating atria screen (right atrium, positive chronotropic effect, antagonism of 5-HT). The experiment is classed as cell-based, Porcine. As for the experimental part:
Method (See A. J. Kaumann, 1990, Naunyn-Schmiedeberg's Arch. Pharmacol 342, 619-622).
Piglets of either sex, 2 to 5 days old, were obtained from local farms. Usually 2 piglets were from the same litter. The piglets were anaesthetised with halothene; their hearts rapidly removed and washed free of blood with warm solution containing (mM):120 Na^+, 5 K^+, 2.25 Ca^2+, 0.5 Mg^2+, 98.5 Cl^-, 0.5 SO4^2-, 34 HCO3^-, 1 HPO4^2-, 0.04 EDTA, deionised and double distilled water in glass, equilibrated with 95% O2 and 5% CO2.
After dissection of the right atrium in warm solution, the tissue was set up in an apparatus with a 50 ml. bath (Blinks, 1965 J. Appl. Physiol. 20, 755-757), containing the solution described above supplemented with (mM):15 Na^+, 5 fumarate, 5 pyruvate, 5 L-glutamate, 10 glucose. Experiments were carried out at 37°C. […] The tissue was attached to a Swema SG4-45 strain gauge transducer by means of a stainless steel wire and force recorded on a Watanabe polygraph. […]
A single cumulative concentration-effect curve was determined by the sequential addition of 5-HT or other agonists to the bath in amounts that increased the total concentration in steps of ½ log unit. […] The time of incubation with an antagonist was at least 1 hr before a concentration-effect curve for an agonist was determined.

The target in experiment [2] is T1, cardiac 5-HT4 receptors (Homo sapiens, UniProt Q13639).
T1 construct: from tissue; host or cells: human right atrial preparation
T1 sequence (Q13639 whole entry): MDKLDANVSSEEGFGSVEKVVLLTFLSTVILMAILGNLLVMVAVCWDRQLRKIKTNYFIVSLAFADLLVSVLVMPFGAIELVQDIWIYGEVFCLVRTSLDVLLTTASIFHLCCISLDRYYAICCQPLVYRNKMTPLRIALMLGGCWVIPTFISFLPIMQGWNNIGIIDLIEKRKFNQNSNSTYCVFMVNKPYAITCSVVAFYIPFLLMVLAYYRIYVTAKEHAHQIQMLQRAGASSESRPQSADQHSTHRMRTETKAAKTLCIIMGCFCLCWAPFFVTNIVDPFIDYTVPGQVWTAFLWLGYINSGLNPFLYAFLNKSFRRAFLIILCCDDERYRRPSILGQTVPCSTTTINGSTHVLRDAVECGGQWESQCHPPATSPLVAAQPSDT
Nature of the experiment: Human right atrial preparations (force), blocking potency of antagonists. The class given is cell-based. As to conditions: Granisetron tested at 20 µM.

cardiac 5-HT4 receptors (Sus scrofa, UniProt Q6Q253), sequence (Q6Q253 1-402): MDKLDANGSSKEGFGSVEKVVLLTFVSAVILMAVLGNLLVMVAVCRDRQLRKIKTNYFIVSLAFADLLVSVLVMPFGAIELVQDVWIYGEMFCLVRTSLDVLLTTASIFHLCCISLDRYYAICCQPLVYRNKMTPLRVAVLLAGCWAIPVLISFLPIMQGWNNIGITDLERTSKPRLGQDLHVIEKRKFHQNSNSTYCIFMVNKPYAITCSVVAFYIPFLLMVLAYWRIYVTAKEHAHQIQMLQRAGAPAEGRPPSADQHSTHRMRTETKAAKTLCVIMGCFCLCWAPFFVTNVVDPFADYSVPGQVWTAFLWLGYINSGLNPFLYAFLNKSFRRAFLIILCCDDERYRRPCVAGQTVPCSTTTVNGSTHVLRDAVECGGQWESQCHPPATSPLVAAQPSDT

As for `CN1[C@@H]2CC[C@H]1C[C@@H](OC(=O)c1n[nH]c3ccccc13)C2` [(3-α-tropanyl)-1H-indazole-3-carboxylic acid ester], at cardiac 5-HT4 receptors [1] (conclusion from the preliminary screening results of Table 1), the “type of antagonism of cardiac 5-HT4 receptors” value is “competitive antagonist”.

Regarding `CN1C2CCCC1CC(NC(=O)c1nn(C)c3ccccc13)C2` (stereo not drawn) [Granisetron], the “pK (-log M equilibrium dissociation constant), blocking potency, Porcine (rate)” value at cardiac 5-HT4 receptors [1] (piglet spontaneously beating right atrium, rate, 37°C, 400 nM (±)-propranolol and 6 µM cocaine present, antagonist incubated at least 1 hr, Granisetron tested at 1 µM, preliminary screening results) is “ineffective (1 µM)”. Moreover, the “pK (-log M equilibrium dissociation constant), blocking potency, Human (force)” value on cardiac 5-HT4 receptors [2] is recorded as “ineffective (20 µM)”.
